Assay results: publication PMC3364022 (Journal of the American Chemical Society, 2011)
Where a SMILES comes first, the peptide text is derived from it. [ ]: non-standard residue; d: D form. β3hW = N[C@H](CC(=O)O)Cc1c[nH]c2ccccc12; β3hY = N[C@H](CC(=O)O)Cc1ccc(O)cc1; β3hR = N=C(N)NCCC[C@H](N)CC(=O)O; β3hF = N[C@H](CC(=O)O)Cc1ccccc1; β3hQ = NC(=O)CC[C@H](N)CC(=O)O; βAla = NCCC(=O)O

Target: Bcl-xL (Homo sapiens, UniProt Q07817)
Experiment: Competition fluorescence polarization
Type: binding
Conditions: competition FP Ki, relative to α-peptide 1

Sequence of Bcl-xL (Q07817 whole entry): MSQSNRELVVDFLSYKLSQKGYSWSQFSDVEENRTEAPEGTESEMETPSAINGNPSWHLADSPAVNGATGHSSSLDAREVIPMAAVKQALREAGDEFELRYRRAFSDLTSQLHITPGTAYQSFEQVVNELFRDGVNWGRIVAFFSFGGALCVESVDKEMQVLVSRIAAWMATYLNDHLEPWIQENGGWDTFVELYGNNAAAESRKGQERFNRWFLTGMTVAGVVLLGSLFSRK

Affinity for Bcl-xL, fold weaker than observed for 1: 23 fold
SMILES: CC[C@H](C)[C@H](NC(C)=O)C(=O)N[C@H](CC(=O)N[C@H](C(=O)N[C@@H](C)C(=O)N[C@@H](CCC(N)=O)CC(=O)N[C@@H](CCC(=O)O)C(=O)N[C@@H](CC(C)C)C(=O)N[C@@H](CCCNC(=N)N)CC(=O)N[C@@H](CCCNC(=N)N)C(=O)N[C@H](C(=O)NCCC(=O)N[C@@H](CC(=O)O)C(=O)N[C@@H](CCC(=O)O)C(=O)N[C@H](CC(=O)N[C@@H](CC(N)=O)C(=O)N[C@@H](C)C(=O)N[C@H](CC(=O)N[C@@H](Cc1ccc(O)cc1)C(N)=O)Cc1ccc(O)cc1)Cc1ccccc1)[C@@H](C)CC)[C@@H](C)CC)Cc1c[nH]c2ccccc12 [3c] (Ac-I[β3hW]IA[β3hQ]EL[β3hR]RI[βAla]DE[β3hF]NA[β3hY]Y-NH2)
